Measured values published in ChEMBL document CHEMBL3885861, “Open TG-GATES”.

Species: Rattus norvegicus
Experiment: Open TG-GATES - Regimen: Daily Repeat
Format: toxicity, organism-based, Sprague-Dawley
Design: regimen Daily Repeat, gender Male, age 6 weeks
Details: in vivo, po, route gavage; for gamma-GTP / ALP / ALT / AST / BUN / CRE / DBIL / GLC / IP / K / LDH / Na / PL / RALB / TBIL / TC / TG / TP: tissue Plasma; for APTT / Bas / Eos / Fbg / Hb / Ht / Lym / MCH / MCHC / MCV / Mono / Neu / PT / Plat / RBC / Ret / WBC: tissue Blood; for KIDNEY_L / KIDNEY_R / KIDNEY_TOTAL: tissue Kidney; for LIVER: tissue Liver
[1] = 450 mg/kg, 72 h, dose level High, time 3 day
[2] = 450 mg/kg, […], dose level High, time 7 day
[3] = 450 mg/kg, […], dose level High, time 14 day
[4] = 450 mg/kg, […], dose level High, time 28 day

CC(CCc1ccccc1)NCC(O)c1ccc(O)c(C(N)=O)c1 (centres undefined) [LABETALOL]
gamma-GTP (150 mg/kg, […], dose level Middle, time 28 day): 1.2 IU/L
TERMINAL_BW [1]: 240.1 g
APTT [1]: 17 s
Bas [1]: 0%
Eos [1]: 0.8%
Fbg [1]: 275.8 mg/dL
Hb [1]: 13.6 g/dL
Ht [1]: 39.8%
Lym [1]: 79%
MCH [1]: 21.2 pg
MCHC [1]: 34.2%
MCV [1]: 61.9 fL
Mono [1]: 2.4%
Neu [1]: 17.2%
PT [1]: 12.9 s
Plat [1]: 114.3 x10_4/uL
RBC [1]: 644 x10_4/ul
Ret [1]: 6.4%
WBC [1]: 89.1 x10_2/uL
KIDNEY_L [1]: 1 g
KIDNEY_R [1]: 1 g
KIDNEY_TOTAL [1]: 2 g
LIVER [1]: 9.9 g
ALP [1]: 1714 IU/L
ALT [1]: 45.4 IU/L
AST [1]: 61.8 IU/L
BUN [1]: 16.4 mg/dL
CRE [1]: 0.2 mg/dL
DBIL [1]: 0.014 mg/dL
GLC [1]: 162.8 mg/dL
IP [1]: 7.1 mg/dL
K [1]: 4.4 meq/L
LDH [1]: 45.2 IU/L
Na [1]: 142.6 meq/L
PL [1]: 142.8 mg/dL
RALB [1]: 2.6 g/dL
TBIL [1]: 0.038 mg/dL
TC [1]: 88 mg/dL
TG [1]: 43.6 mg/dL
TP [1]: 5.6 g/dL
gamma-GTP [1]: 1 IU/L
TERMINAL_BW [2]: 269.7 g
TERMINAL_BW [3]: 293.4 g
TERMINAL_BW [4]: 333.5 g
APTT [2]: 17.5 s
Bas [2]: 0%
Eos [2]: 0.8%
Fbg [2]: 266.4 mg/dL
Hb [2]: 14.1 g/dL
Ht [2]: 40.5%
Lym [2]: 77.8%
MCH [2]: 21.1 pg
MCHC [2]: 34.7%
MCV [2]: 60.7 fL
Mono [2]: 3.4%
Neu [2]: 17.4%
PT [2]: 13.5 s
Plat [2]: 97.4 x10_4/uL
RBC [2]: 667.6 x10_4/ul
Ret [2]: 4%
WBC [2]: 80.1 x10_2/uL
APTT [3]: 18.2 s
Bas [3]: 0%
Eos [3]: 1%
Fbg [3]: 278 mg/dL
Hb [3]: 15.3 g/dL
Ht [3]: 44.1%
Lym [3]: 78.3%
MCH [3]: 20.6 pg
MCHC [3]: 34.8%
MCV [3]: 59.1 fL
Mono [3]: 2%
Neu [3]: 17.7%
PT [3]: 13.6 s
Plat [3]: 94.8 x10_4/uL
RBC [3]: 745 x10_4/ul
Ret [3]: 2.9%
WBC [3]: 85.7 x10_2/uL
APTT [4]: 19.7 s
Bas [4]: 0%
Eos [4]: 1%
Fbg [4]: 228.5 mg/dL
Hb [4]: 15.9 g/dL
Ht [4]: 44.5%
Lym [4]: 78.5%
MCH [4]: 19.5 pg
MCHC [4]: 35.6%
MCV [4]: 54.7 fL
Mono [4]: 2%
Neu [4]: 18%
PT [4]: 14.7 s
Plat [4]: 79 x10_4/uL
RBC [4]: 813.5 x10_4/ul
Ret [4]: 1%
WBC [4]: 104.3 x10_2/uL
KIDNEY_L [2]: 1.2 g
KIDNEY_R [2]: 1.1 g
KIDNEY_TOTAL [2]: 2.3 g
KIDNEY_L [3]: 1.1 g
KIDNEY_R [3]: 1.2 g
KIDNEY_TOTAL [3]: 2.3 g
KIDNEY_L [4]: 1.4 g
KIDNEY_R [4]: 1.3 g
KIDNEY_TOTAL [4]: 2.6 g
LIVER [2]: 11 g
LIVER [3]: 10.8 g
LIVER [4]: 11.6 g
ALP [2]: 1741.8 IU/L
ALT [2]: 55.8 IU/L
AST [2]: 65.8 IU/L
BUN [2]: 16.2 mg/dL
CRE [2]: 0.2 mg/dL
DBIL [2]: 0.008 mg/dL
GLC [2]: 162.2 mg/dL
K [2]: 4.3 meq/L
LDH [2]: 50 IU/L
Na [2]: 142.4 meq/L
PL [2]: 149.8 mg/dL
RALB [2]: 2.6 g/dL
TBIL [2]: 0.03 mg/dL
TC [2]: 91.2 mg/dL
TG [2]: 37.2 mg/dL
TP [2]: 5.7 g/dL
gamma-GTP [2]: 1.2 IU/L
ALP [3]: 1433.3 IU/L
ALT [3]: 45.3 IU/L
AST [3]: 61.3 IU/L
BUN [3]: 18.7 mg/dL
CRE [3]: 0.3 mg/dL
DBIL [3]: 0.01 mg/dL
GLC [3]: 176.7 mg/dL
K [3]: 3.8 meq/L
LDH [3]: 47.7 IU/L
Na [3]: 145.3 meq/L
PL [3]: 138 mg/dL
RALB [3]: 2.7 g/dL
TBIL [3]: 0.0267 mg/dL
TC [3]: 79.3 mg/dL
TG [3]: 38.3 mg/dL
TP [3]: 6 g/dL
gamma-GTP [3]: 1.3 IU/L
ALP [4]: 1187.5 IU/L
ALT [4]: 54 IU/L
AST [4]: 70 IU/L
BUN [4]: 25 mg/dL
CRE [4]: 0.3 mg/dL
DBIL [4]: 0.02 mg/dL
GLC [4]: 159.5 mg/dL
IP [4]: 7.8 mg/dL
K [4]: 4.2 meq/L
LDH [4]: 38.5 IU/L
Na [4]: 141 meq/L
PL [4]: 125.5 mg/dL
RALB [4]: 2.7 g/dL
TBIL [4]: 0.04 mg/dL
TC [4]: 62 mg/dL
TG [4]: 61.5 mg/dL
TP [4]: 6 g/dL
gamma-GTP [4]: 2 IU/L
